# Results taken from patent US20060287319A1, “Anti-viral compositions comprising heterocyclic substituted phenyl furans and related compounds” (priority 2005, published 2006).
# Where two headings read alike, the source gives them in different places.
# Tests used:
# [1] = system: laboratory-adapted HIV-1 strains, including RF, SF2, MN, and AZT-R; conditions: dose-dependent
# Description: (§1) Assessment of anti-HIV-1 infectivity. The inhibitory activity of compounds on infection by laboratory-adapted HIV-1 strains was determined as previously described (34). In brief, 1×10^4 MT-2 cells were infected with HIV-1 at 100 TCID50 (50% tissue culture infective dose) in 200 μl of RPMI 1640 medium containing 10% FBS in the presence or absence of compounds at graded concentrations overnight. For the time-of-addition assay, compounds were added at various time post-infection. Then the culture supernatants were removed and fresh media were added. On the fourth day post-infection, 100 μl of culture supernatants were collected from each well, mixed with equal volumes of 5% Triton X-100 and assayed for p24 antigen, which was quantitated by ELISA (23). Briefly, the wells of polystyrene plates (Immulon 1B, Dynex Technology, Chantilly, Va.) were coated with HIV immunoglobulin (HIVIG), which was prepared from plasma of HIV-seropositive donors with high neutralizing titers against HIV-1IIIB as previously described (36) in 0.085 M carbonate-bicarbonate buffer (pH 9.6) at 4° C. overnight, followed by washes with PBS-T buffer (0.01M PBS containing 0.05% Tween-20) and blocking with PBS containing 1% dry fat-free milk (Bio-Rad Inc., Hercules, Calif.). Virus lysates were added to the wells and incubated at 37° C. for 1 h. […] Reactions were terminated by addition of 1N H2SO4. Absorbance at 450 nm was recorded in an ELISA reader (Ultra 384, Tecan). Recombinant protein p24 (US Biological, Swampscott, Mass.) was included for establishing standard dose response curve.
# [2] = system: HIV-1 RF; conditions: read-out: IC50 (μM) (Mean ± SD); HIV-1 strain RF
# Description: as §1
# [3] = system: HIV-1 AZT-R, a strain resistant to AZT; conditions: read-out: IC50 (μM) (Mean ± SD); HIV-1 strain AZT-R
# Description: as §1
# [4] = system: HIV-1 MN; conditions: read-out: IC50 (μM) (Mean ± SD); HIV-1 strain MN
# Description: as §1
# [5] = system: HIV-1 SF2; conditions: read-out: IC50 (μM) (Mean ± SD); HIV-1 strain SF2
# Description: as §1
# [6] = system: HIV-1IIIB infected H9 cells (H9/HIV-1IIIB) and MT-2 cells; assay: HIV-1 mediated cell-cell fusion (dye transfer assay); format: cell-based; conditions: for EC50: H9/HIV-1IIIB with MT-2 cells, read-out: EC50 (μM) (M ± SD) for inhibition of Cell fusion; for inhibition of fusion of HIV-1IIIB infected H9 cells with uninfected MT-2 cells: dose dependent, FIG. 2
# Description: Inhibition of cell-cell fusion. A dye transfer assay was used for detection of HIV-1 mediated cell fusion as previously described (11,25,26). H9/HIV-1IIIB cells were labeled with a fluorescent reagent, Calcein-AM (Molecular Probes, Inc., Eugene, Oreg.) and then incubated with MT-2 cells (ratio=1:5) in 96-well plates at 37° C. for 2 hrs in the presence or absence of compounds tested. The fused and unfused Cacein-labeled HIV-1-infected cells were counted under an inverted fluorescence microscope (Zeiss, Germany) with an eyepiece micrometer disc. The percentage of inhibition of cell fusion and the IC50 values were calculated as previously described (11).
# [7] = system: 92THA009 (clade E, R5); conditions: read-out: EC50 (μM) (Mean ± SD)
# Description: (§2) Inhibitory activity of compounds on infection by primary HIV-1 isolates was determined as previously described (37). PBMCs were isolated from the blood of healthy donors at the New York Blood Center by standard density gradient centrifugation using Histopaque-1077 (Sigma). The cells were plated in 75 cm^2 plastic flasks and incubated at 37° C. for 2 hrs. The nonadherent cells were collected and resuspended at 5×10^6 in 10 ml RPMI-1640 medium containing 10% FBS, 5 μg/ml PHA and 100 U/ml IL-2 (Sigma), followed by incubation at 37° C. for 3 days. The PHA-stimulated cells were infected with corresponding primary HIV-1 isolates at 0.01 multiplicity of infection (MOI) in the absence or presence of a compound at graded concentrations. Culture media were changed every 3 days. The supernatants were collected 7 days post-infection and tested for p24 antigen by ELISA as described above. The percent inhibition of p24 production and IC50 values were calculated as described above.
# [8] = system: RU570 (clade G, R5); conditions: read-out: EC50 (μM) (Mean ± SD)
# Description: as §2
# [9] = system: 92US657 (clade B, R5); conditions: read-out: EC50 (μM) (Mean ± SD)
# Description: as §2
# [10] = system: 94UG103 (clade A, X4R5); conditions: read-out: EC50 (μM) (Mean ± SD)
# Description: as §2
# [11] = target: gp41 six-helix bundle formation between N36 and C34 (Human immunodeficiency virus type 1 group M subtype B, UniProt P04578); conditions: read-out: IC50 for inhibition of six-helix bundle formation between N36 and C34; sandwich ELISA, FIG. 3
# Description: ELISA for screening for compounds that inhibit the gp41 six-helix bundle formation. A sandwich ELISA as previously described (27) was used to screen for compounds that inhibit the gp41 six-helix bundle formation. Briefly, peptide N36 (2 μM) was pre-incubated with a test compound at the indicated concentrations at 37° C. for 30 min, followed by addition of C34 (2 μM). In the control experiments, N36 was pre-incubated with C34 at 37° C. for 30 min, followed by addition of the test compound. After incubation at 37° C. for 30 min, the mixture was added to wells of a 96-well polystyrene plate (Costar, Corning Inc., Corning, N.Y.) which were precoated with IgG (2 μg/ml) purified from rabbit antisera directed against the N36/C34 mixture. […] Absorbance at 450 nm was measured using an ELISA reader (Ultra 384, Tecan, Research Triangle Park, N.C.). […] Chou (Sloan-Kettering Cancer Center, New York, N.Y.).
# A model system of the gp41 six-helix bundle was established by mixing the N— and C-peptides at equal molar concentrations (16).
# [12] = system: MT-2 cells
# Description: Detection of in vitro cytotoxicity. The in vitro cytotoxicity of compounds for MT-2 cells was measured by a colorimetric method using XTT tetrazolium dye as previously described (21). Briefly, 100 μl of a compound at a graded concentration was added to equal volume of cells (5×10^5/ml) in a well of 96-well plates. After incubation at 37° C. for 4 days, XTT (1 mg/ml; […]; PolySciences, Inc., Warrington, Pa.) was added. Four hours later, the soluble intracellular formazan was quantitated colorimetrically at 450 nm with a reference at 570 nm.
# [13] = read-out: Cytotoxicity CC50 (μM) (M ± SD), MT-2 cells
# gp41 six-helix bundle formation between N36 and C34, sequence (P04578 546-581): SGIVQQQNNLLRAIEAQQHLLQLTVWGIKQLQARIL
SMILES,"IC50 values, infection by other laboratory-adapted HIV-1 strains [1]",IC50 [2],IC50 [3],IC50 [4],IC50 [5],EC50 [6],inhibition of fusion of HIV-1IIIB infected H9 cells with uninfected MT-2 cells [6],EC50 [7],EC50 [8],EC50 [9],EC50 [10],IC50 [11],CC50 [12],IC50 [6],"CC50 [12, 13]"
CCN1C(=O)/C(=C/c2ccc(-c3cccc(C(=O)O)c3)o2)SC1=S [NB179],nanomolar range,4.2 ± 0.256 µM,4.39 ± 0.471 µM,2.93 ± 0.362 µM,11.9 ± 1.7 µM,3.66 ± 0.154 µM,inhibited fusion,6.21 ± 0.987 µM,0.431 ± 0.122 µM,0.847 ± 0.356 µM,0.088 ± 0.047 µM,2510 ± 270 nM,> 616 µM,,
O=C(O)c1cc(-c2ccc(/C=C3\SC(=S)N(CCc4ccccc4)C3=O)o2)ccc1Cl [NB206],nanomolar range,0.034 ± 0.014 µM,0.046 ± 0.004 µM,0.174 ± 0.027 µM,0.261 ± 0.062 µM,0.459 ± 0.05 µM,inhibited fusion,0.075 ± 0.022 µM,0.017 ± 0.004 µM,0.216 ± 0.054 µM,0.004 ± 0.001 µM,830 ± 30 nM,,< 667 nM,18.8 ± 7.48 µM
O=C(O)c1cccc(-c2ccc(/C=C3\SC(=S)N(c4ccc(Cl)cc4Cl)C3=O)o2)c1 [NB231],nanomolar range,0.152 ± 0.029 µM,0.823 ± 0.053 µM,1.69 ± 0.044 µM,4.68 ± 0.559 µM,0.982 ± 0.054 µM,inhibited fusion,0.217 ± 0.058 µM,0.143 ± 0.061 µM,1.06 ± 0.344 µM,0.125 ± 0.013 µM,930 ± 330 nM,,,124.1 ± 0.756 µM
